Measured values taken from patent US10071109B2, “Predictive biomarker for hypoxia-activated prodrug therapy” (Molecular Templates, Inc., priority 2013, dated 2018).

Assays:
[1] = system: GL0608 gall bladder cancer PDX xenograft model; test: TH-302 efficacy in GL0608 gall bladder cancer PDX xenograft model; type: in vivo, mice
From the text: (§1) A series of tumor xenograft experiments was initiated. In these gall bladder and NSCLC tumor experiments, patient-derived tumor xenograft (PDX) models were selected since these models more accurately mimic the histology and genetics of actual human tumors as compared with the cell line derived models. More specifically, the original tumor sources for these human tumor xenograft models were patient-derived (PDX) gall bladder and lung carcinomas that have been maintained subcutaneously in nude mice for >3 passages. When grown to 500-700 mm^3, the tumors were harvested for inoculation by selecting and slicing (into 3×3×3 mm^3 fragments) well grown portions of tumors. These tumor fragments were implanted subcutaneously in the right flank of athymic nu/nu mice (female, 6-8 weeks old (18-20 g)) for the efficacy experiments. All of the procedures for tumor harvesting, inoculation, animal dosing, and tumor and body weight measurement were conducted in a sterile hoods.
(§2) For the efficacy studies, when the average tumor size reached 100-200 mm^3, mice were randomly grouped into vehicle and TH-302 treatment groups. Each group contained 8-10 mice. Since the tumor volume could affect the effectiveness of any given treatment, a randomized block design was used in the group assignment based upon their tumor volumes. […] After randomization, mice were treated with either vehicle or TH-302 i.p. 60 mg/kg twice per week (Q2W) for approximately 5-8 weeks based on tumor grow rate and response. The precise dosing periods are described in the legends of FIGS. 1 and 2 above. Tumor volumes were measured twice weekly.
(§3) %ΔT/ΔC was calculated with the formula below: %ΔT/ΔC=((TVf−TVi)/(TVfCtrl−TViCtrl))×100% where TV=tumor volume, f=final, I=initial, and Ctrl=control group.
(§4) If tumor regression was observed: %ΔT/ΔC=(TVf−TVi)/TVi)×100%=% Regression=(1−(TVf/TVi))×100% where TV=tumor volume, f=final, I=initial, and Ctrl=control group. […]

[2] = system: GL1208 gall bladder cancer PDX xenograft model; test: TH-302 efficacy in GL1208 gall bladder cancer PDX xenograft model; type: in vivo, mice
From the text: as §1
(§5) For the efficacy studies, when the average tumor size reached 100-200 mm^3, mice were randomly grouped into vehicle and TH-302 treatment groups. Each group contained 8-10 mice. […] Tumor volumes were measured twice weekly.
(§6) %ΔT/ΔC was calculated with the formula below: %ΔT/ΔC=((TVf−TVi)/(TVfCtrl−TViCtrl))×100% where TV=tumor volume, f=final, I=initial, and Ctrl=control group. […]

[3] = system: LU1245 NSCLC PDX xenograft model; test: TH-302 efficacy in LU1245 NSCLC PDX xenograft model; type: in vivo, mice
From the text: as §1, §2, §3, §4

[4] = system: LU1304 NSCLC PDX xenograft model; test: TH-302 efficacy in LU1304 NSCLC PDX xenograft model; type: in vivo, mice
From the text: as §1, §5, §6

[5] = system: LU2505 NSCLC PDX xenograft model; test: TH-302 efficacy in LU2505 NSCLC PDX xenograft model; type: in vivo, mice
From the text: as §1, §5, §6

[6] = system: LU1380 NSCLC PDX xenograft model; test: TH-302 efficacy in LU1380 NSCLC PDX xenograft model; type: in vivo, mice
From the text: as §1, §5, §6

[7] = system: LU0357 NSCLC PDX xenograft model; test: TH-302 efficacy in LU0357 NSCLC PDX xenograft model; type: in vivo, mice
From the text: as §1, §5, §6

[8] = system: LU1235 NSCLC PDX xenograft model; test: TH-302 efficacy in LU1235 NSCLC PDX xenograft model; type: in vivo, mice
From the text: as §1, §5, §6

[9] = system: LU0387 NSCLC PDX xenograft model; test: TH-302 efficacy in LU0387 NSCLC PDX xenograft model; type: in vivo, mice
From the text: as §1, §5, §6

[10] = Body weights of mice treated with TH-302 in PDX xenograft studies; type: in vivo; details: 60 mg/kg i.p. Q2W, data not shown
From the text: as §1
For the efficacy studies, when the average tumor size reached 100-200 mm^3, mice were randomly grouped into vehicle and TH-302 treatment groups. Each group contained 8-10 mice. Since the tumor volume could affect the effectiveness of any given treatment, a randomized block design was used in the group assignment based upon their tumor volumes. […] Tumor volumes were measured twice weekly.

[11] = system: panel of 11 cancer cell-line derived models; details: previous tumor xenograft studies; cited from earlier work

Cn1c(COP(=O)(NCCBr)NCCBr)cnc1[N+](=O)[O-] [TH-302, (2-bromoethyl)({[(2-bromoethyl)amino][(2-nitro-3-methylimidazol-4-yl)methoxy]phosphoryl})amine]
%ΔT/ΔC (TH-302) ([1]; GL0608, gall bladder, adenocarcinoma, TH-302 60 mg/kg i.p. twice per week (Q2W), 59 days): −100%
mice with a complete response (lack of tumor re-growth following regression) ([1]; GL0608, 60 mg/kg i.p. Q2W for 59 days, at day 99, final tumor measurement): 10/10
antitumor activity (tumor growth measurements), in words ([1]; GL0608, 60 mg/kg i.p. Q2W, treatment period 59 days): highly sensitive
%ΔT/ΔC (TH-302) ([2]; GL1208, gall bladder, adenosquamous, TH-302 60 mg/kg i.p. twice per week (Q2W), 49 days): 62%
antitumor activity (tumor growth measurements), in words ([2]; GL1208, 60 mg/kg i.p. Q2W, after 49 days treatment): minor tumor growth inhibition
%ΔT/ΔC (TH-302) ([3]; LU1245, NSCLC EGFR wt, TH-302 60 mg/kg i.p. twice per week (Q2W), 49 days): −42%
antitumor activity (tumor growth measurements), in words ([3]; LU1245, 60 mg/kg i.p. Q2W, 49 day dosing period): highly sensitive
mice with a complete response (lack of tumor re-growth following regression) ([3]; LU1245, 60 mg/kg i.p. Q2W, 49 day dosing, at day 73 (14 days post treatment termination)): 5/10
%ΔT/ΔC (TH-302) ([4]; LU1304, NSCLC EGFR wt, TH-302 60 mg/kg i.p. twice per week (Q2W), approximately 5-8 weeks): 93%
antitumor activity, in words ([4]; LU1304, similar to LU1380): minor level of efficacy
%ΔT/ΔC (TH-302) ([5]; LU2505, NSCLC EGFR wt, TH-302 60 mg/kg i.p. twice per week (Q2W), approximately 5-8 weeks): 34%
antitumor activity, in words ([5]; LU2505, similar to LU1380): minor level of efficacy
%ΔT/ΔC (TH-302) ([6]; LU1380, NSCLC EGFR wt, TH-302 60 mg/kg i.p. twice per week (Q2W), 42 days): 86%
antitumor activity (tumor growth measurements), in words ([6]; LU1380, 60 mg/kg i.p. Q2W, after 42 days treatment): minor tumor growth inhibition
%ΔT/ΔC (TH-302) ([7]; LU0357, NSCLC EGFR mt, TH-302 60 mg/kg i.p. twice per week (Q2W), approximately 5-8 weeks): 93%
antitumor activity, in words ([7]; LU0357, similar to LU1380): minor level of efficacy
%ΔT/ΔC (TH-302) ([8]; LU1235, NSCLC EGFR mt, TH-302 60 mg/kg i.p. twice per week (Q2W), approximately 5-8 weeks): 74%
antitumor activity, in words ([8]; LU1235, similar to LU1380): minor level of efficacy
%ΔT/ΔC (TH-302) ([9]; LU0387, NSCLC EGFR mt, TH-302 60 mg/kg i.p. twice per week (Q2W), approximately 5-8 weeks): 84%
antitumor activity, in words ([9]; LU0387, similar to LU1380): minor level of efficacy
changes in the body weights of the mice treated with TH-302 ([10]; NSCLC PDX studies (LU1245, LU1380)): No significant changes
changes in the body weights of the mice treated with TH-302 ([10]; gall bladder PDX studies (GL0608, GL1208)): No significant changes
monotherapy efficacy (tumor growth delays) [11]: modest
